From a melting point compilation (Tetko et al.; mined from patent text by program, amines drawn as free bases though some values may be those of a salt)

Compound | melting point [°C]
Cc1cccc(-c2[nH]c(C(C)C)nc2-c2cccc(-c3cccc(F)c3)c2)n1 | 140 to 142
CCC(=O)Nc1c(Sc2cc(C)cc(C)c2)c(C)c[nH]c1=O | 186 to 188
O=C(NS(=O)(=O)C=Cc1ccccc1)N1CCCC1 | 201 to 204
COC(=O)c1cc2c(I)cccc2cn1 | 165 to 167
CCC1=NN=C(CC)NN1 | 118 to 120
Cc1cccc(NC(=O)NCC(=O)N2C(Cc3ccccc3)SC[C@H]2C(=O)OC(C)(C)C)c1 (stereo partly drawn) | 104
CCc1nnc2c(Cl)nc3cc(OC)ccc3n12 | 173 to 175
CNC(=O)N(C=O)c1cccc(C)c1 | 112 to 113
CS(=O)(=O)Nn1c(=O)[nH]c2cc(C(F)(F)F)c(C3CCCO3)cc2c1=O (stereo not drawn) | 254 to 257
CCS(=O)(=O)N(Cc1cccnc1)c1ccc(F)cc1F | 91 to 92
CCN(CC)C(=O)CCCCCN1CCC(NC(=O)c2cnc3c(OC)cccc3c2Nc2ccc(C(=O)NC3CCN(Cc4ccccc4)CC3)cc2)CC1 | 115 to 120
CCOC(=O)C=CCn1c(C(=O)c2cc(C)cc(C)c2)c(CC)c(=O)[nH]c1=O | 157 to 158
C=C1c2ccccc2C(n2cncc2C(=O)OC)C1(C)C (stereo not drawn) | 125 to 126
O=C(Cc1ccccn1)OC(=O)Cc1ccccn1 | 105 to 106
CS(=O)(=O)C=C(N)C1(c2ccc(Cl)cc2)CCC1 | 125 to 126
CCc1noc(-c2cn(-c3cccc(Oc4ccc([N+](=O)[O-])cc4)c3)cn2)n1 | 145 to 146
C=CC(O)c1ccccc1C#CC1C(O)C2CCN1CC2 (stereo not drawn) | 148 to 150
COC(=O)/C=C/c1ccc(CC(C)NCC(O)c2cccc(Br)c2)cc1 (stereo not drawn) | 105 to 111
O=C1c2c(Cl)cccc2-n2cnc(I)c2[C@@H]2CCCN12 | 298 to 300
O=C(O)c1cc(N=Nc2cc(C(=O)O)cc(SCc3ccccc3)c2C(=O)c2ccccc2)c(C(=O)c2ccccc2)c(SCc2ccccc2)c1 | 218 to 220
COc1csc(C)c1N | 61 to 63
Fc1ccc(-c2nc3ccccn3c2Br)c(F)c1 | 144
CC(C)(C)c1cc(-c2nn(CC(=O)N3CCOCC3)c3ncccc23)cc(C(C)(C)C)c1O | 207 to 209
Cc1cc(CNC(=O)c2sc(N3C[C@@H](C)N(Cc4ccc(F)cc4)C3=O)nc2C)[nH]n1 | 215 to 216

Compound | melting point [°C]
COc1ccc2[nH]c(C(C)=NO)cc2c1 | 148 to 150
CCCn1cnc(C(N)=O)c1NC(=O)c1ccccc1OCC | 182 to 184
CCCCCCCCCCCCc1nnn(C(CCCCCCCCCCCC)C(=O)O)n1 (stereo not drawn) | 57 to 59
COC(=O)c1ccc(CN2C(=O)C3(COc4cc5c(cc43)OCCO5)c3ccccc32)cc1 (stereo not drawn) | 167 to 169
CN1C(=O)[C@H](NC(=O)CCc2ccc(F)cc2F)N=C(c2ccccc2)c2ccccc21 | 79 to 81
NC(=O)C1(c2ccc(C#Cc3ccccc3)cc2)CC1 | 174 to 176
COC(CN(C)C(=O)Nc1nnc(C(C)Oc2cc(Cl)cc(Cl)c2)s1)OC (stereo not drawn) | 149 to 152
Oc1ccccc1CNNCc1ccccc1O | 315 to 316
CC(=O)c1cccc(Oc2ncccc2C(=O)NCc2ccc(C(C)(C)O)cc2F)c1 | 68 to 70
CN1CCN(C(=O)OC2C3=C(SCCS3)C(=O)N2c2ccc3ccc(Cl)cc3n2)CC1 (stereo not drawn) | 192
COc1ccc(NC(=O)C(F)(F)F)cc1C12CC3CC(CC(C3)C1)C2 | 166 to 167
CN1CCC(Nc2cccc(NC(=O)OC(C)(C)C)c2)CC1 | 124 to 125
COc1ccc2c(c1)Sc1c(cc(OC)c(O)c1Br)N2 | 185
COc1cccc2ccc(CC#N)cc12 | 47 to 48
Cc1ccc(C=CC(=O)C=Cc2ccc(C)cc2)cc1 | 174 to 176
Nc1ccc2oc(-c3ccccc3)nc2c1 | 155 to 157
CC(C)C(NC(=O)c1ccc(C(=O)NC(CCC(=O)O)C(=O)O)cc1)C(=O)N1CCCC1C(=O)NC(C(=O)C(F)(F)F)C(C)C (mixture of isomers) | 74 to 76
CCC(=O)Nc1ccc(Oc2cccc(OC)c2)cc1 | 79 to 81
Cc1oc(-c2ccc(C(F)(F)F)cc2)cc1C(=O)Nc1cccc(C=O)c1 | 183 to 184
FC(F)(F)c1ccc2nc(N3CCN(c4c(Cl)cccc4Cl)CC3)[nH]c2c1 | 263 to 265
COc1cc(C=O)c(OC)cc1Cl | 109
CCCCCCNC(=O)Oc1cccc(NC(=O)CC(C)=O)c1 | 125
ClCc1ccc(OCc2cn3c(Cl)cccc3n2)cc1 | 114 to 115
COCc1ccccc1-c1ccc(C(=O)O)cc1 | 164 to 166

Compound | melting point [°C]
COc1cccc2c1CC(=O)c1cc(C(C)C(N)=O)ccc1S2 (stereo not drawn) | 178 to 180
CC1=C(C(=O)c2ccc(C(C)(C)C)cc2)C(=O)C2C=CC=CC2C1=O (stereo not drawn) | 64 to 65
COc1ccc(N2CCN(CCOCc3ccccc3)C2=O)cc1 | 54 to 55
CCOC(=O)c1c(C(F)(F)F)oc2ccc(C(F)(F)F)cc2c1=O | 116 to 120
CCOC(=O)C(CC(=O)c1ccc(Oc2ccc(C)cc2)cc1)SC(C)=O (stereo not drawn) | 85 to 86.5
O=C(O)c1ccc2[nH]c(C(=O)O)cc2c1 | 314 to 315
CNC(=O)C(SC)c1cc(Cl)cc(C(=O)c2ccccc2)c1N (stereo not drawn) | 170 to 171
OC1CCc2c(Br)ccc(Nc3cc(-c4ccc(C(F)(F)F)cc4)ncn3)c2C1 (stereo not drawn) | 192
CCCNC(C)=C1C(=O)OC(=O)C(C(=O)C=Cc2cccc(OC)c2OC)=C1O | 180 to 185
Cn1c2ccc(Cl)cc2c2c3ccccc3c(OCC3CC3)nc21 | 141 to 142
COc1ccccc1Oc1cccc2c1C(=O)N(C1CCC(=O)NC1=O)C2=O (stereo not drawn) | 223 to 225
CC(C)(C)N(CC(O)CONC(=O)NC1CCCCC1)C(=O)NC1CCCCC1 (stereo not drawn) | 151 to 152
O=C(c1ccccc1)c1nc2ncccc2o1 | 151 to 153
CCOC(=O)N(N)c1ccc(C)cc1 | 35
S=C1CN=C(c2ccccc2Cl)c2cc(CCc3ccccc3)sc2N1 | 175 to 176
CC(=O)Oc1c(C)cc(C=CC(=O)Nc2cnc3c(C)cc(C)cc3c2-c2ccccc2Cl)cc1C | 207 to 208
CC(CCOc1ccccc1NS(C)(=O)=O)N1CCC(OC(c2ccccc2)c2ccccc2)CC1 (stereo not drawn) | 114 to 116
CCOC(=O)C1(C(=O)OCC)CCNC(=O)CC1 | 80 to 81
Cc1cc(-c2nc3ccc(CCN4CCCC4)cc3c(=O)[nH]2)cc(C)n1 | 212 to 213
CN(C)c1ccc(C2(c3ccc(N(C)C)cc3N(C)C)OC(=O)c3ccc(N(C)C)cc32)c(N(C)C)c1 | 188 to 192
CN1CCC[C@@H]1Cc1cn(Cc2ccccc2)c2ccc(CS(=O)(=O)N(C)C(c3ccccc3)c3ccccc3)cc12 | 117 to 120
CCCOC1CCCC(C2NC(=O)C2C(C)O[Si](C)(C)C(C)(C)C)C1O (stereo not drawn) | 119 to 121

Further lines, results first:

melting point [°C] | Compound
32 | O=Cc1ccc(OC[C@H]2CO2)cc1
137 | CCC(=O)Nc1cc(S(=O)(=O)c2ccccc2)ccc1NC(=NC(=O)OC)NC(=O)OC
53.5 | O=C(CO)Cc1ccc(Cl)cc1
135 to 140 | CN1c2ccncc2NCc2cccn21
208 to 209 | CN(C)c1cccc(-c2nc3ncccc3o2)c1
242 to 243 | N#Cc1c(-c2ccc(Cl)cc2)[nH]c(C(F)(F)F)c1Cl
55 to 58 | CC(C)CCc1c(-c2ccc(S(C)(=O)=O)cc2)cnn(-c2ccc(F)c(F)c2)c1=O
146 to 148 | O=C(O)C1CCCN(C(=O)c2cccc(C(=O)C3CCC4(CCNCC4)CC3)c2)C1 (stereo not drawn)
209 | O=C(O)c1sc(-c2cccnc2)nc1C(F)(F)F
184 to 185 | Cc1oc(-c2ccc(O)cc2)nc1CCOc1ccc(N)cc1
103 to 106 | CN(C)C(=O)c1ccc(I)cc1
147 to 149 | CC(C)(C)c1ccccc1COc1ccc(N)nn1
47 to 48 | COC(=O)c1cccc(OCc2ccc3ccccc3c2)c1C
271 | Cc1ccc(N2C(=O)C(O)=C(C(=O)c3ccc(C(C)C)cc3)C2c2ccc(C(C)C)cc2)nn1 (stereo not drawn)
119 | CC(=O)OCCOCn1c(Cl)nc2c(Cl)c(Cl)c(Cl)c(Cl)c21
121 to 125 | COc1ccccc1CNc1cccnc1Cl
112 to 114 | CCOC(=O)C1=C(CO)NC(C)=C(C(=O)OCCOCc2ccccc2)C1c1cccc([N+](=O)[O-])c1 (stereo not drawn)

melting point [°C] | Compound
111 to 113 | CCOC(=O)c1ccc2c(S)cccn2c1=O
100 to 102 | CC(=O)Oc1ccccc1C(=O)SC(C)C(=O)NCC(=O)O (stereo not drawn)
214 to 216 | COc1ccc(-n2c(-c3ccc(SC)cc3)nc(SC)c(C#N)c2=O)cc1
174 to 176 | COC(=O)c1c(S(N)(=O)=O)c(C)nn1C
91 to 93 | CC(=O)N[C@@H](CO)C(=O)NCCO[N+](=O)[O-]
203 to 205 | CC(C(=O)O)C1CCCc2c1n(Cc1ccc(Cl)cc1)c1ccc(F)cc21 (stereo not drawn)
131 to 135 | O=C1c2ccccc2C(=O)N1CC1Cc2ccc3c(c2O1)CCC3 (stereo not drawn)
249 to 250 | Cc1cnc(NC(=O)C2=C(O)c3ccc4ccccc4c3S(=O)(=O)N2C)s1
139 to 140 | Cc1oc(-c2ccccc2)nc1COc1ccc(COc2nn(C)cc2CC(=O)O)cn1
116 | Clc1ccc2cc(Br)sc2n1
80 to 81 | CC(OCc1ccc(-c2ccccc2)cc1)(C(=O)O)C(F)(F)F (stereo not drawn)
55.5 to 56.5 | N#CC1(N2C(=O)C3=C(CCCC3)C2=O)CCCCC1
194 to 196 | CN(N=Cc1ccc(C#N)cc1)C(=O)c1[nH]c2ccccc2c1-c1ccccc1
66 | COc1cc(NCCCCCCCl)c2nccc(C)c2c1
353 to 354 | O=S(=O)(O)c1nc2cc(Cl)c(Cl)cc2[nH]1
95 to 97 | CCN1c2ncc(COc3cccc(OC)c3)cc2C(=O)N(C)c2ccc(Cl)nc21
